Experimental data: US20250268884A1, “Deuterated Domperidone for Treating Gastroparesis” (CinDome Pharma, Inc., priority 2022, published 2025)

Columns and labels:
[1] = system: adults with idiopathic or diabetic gastroparesis; conditions: 10 mg BID, Cohort 1, ITT
From the text: Gastric emptying may be measured by the gastric emptying breath test (GEBT). The GEBT is known in the art. Succinctly, the GEBT is a nonradioactive stable isotope breath test used in the art to diagnose or monitor gastroparesis. In this test, the ratio of exhaled ^13CO2/^12CO2 is used to determine the rate of gastric emptying after consumption of a standardized, ^13C-enriched meal. In some embodiments, the ^13C-enriched meal is ^13C-Spirulina platensis. In some examples, the test includes consumption of a standardized, ^13C-enriched meal after an 8-hour fast. See, e.g., the Cairn Gastric Emptying Breath Test (GEBT) Administration Guide at https://cairndiagnostics.com/wp-content/uploads/2019/05/Cairn-GEBT-How-To-Guide-updated-07May2019.pdf, which is hereby incorporated by reference. Breath samples are obtained one or more times prior to consumption of the ^13C-enriched meal and then one or more times after meal consumption. The breath samples are then measured using, e.g., a gas isotope ratio mass spectrometer. […]
Subjects were Evaluated as Follows: • Days −28 to −11: Screening procedures were performed. The ANMS GCSI-DD questionnaire was completed daily for at least 14 days prior to randomization (Day 1); • Days −10 to −3: The ANMS GCSI-DD questionnaire was completed daily. A GEBT was performed on a single day within this window, with breath samples obtained twice prior to consumption of a standardized, carbon-13 (^13C)-enriched meal and then at 45, 90, 120, 150, 180, and 240 minutes after meal consumption after an 8-hour fast. […] On Day 14 (±2 days), the PAGI-SYM and Clinical Grading Assessment questionnaires were completed prior to the final dose of study drug. • A GEBT was administered 30 minutes after study drug administration on Day 14 (±2 days). Breath samples were obtained twice prior to ^13C-enriched meal consumption and then at 45, 90, 120, 150, 180, and 240 minutes after meal consumption after an 8-hour fast. […] Clinical Grading Assessment Scales were also performed.
The primary efficacy variable was the change from baseline in gastric emptying as measured by GEBT at Day 14.
The secondary efficacy variables were the following: • The change from baseline in gastric emptying as measured by GEBT T½ at Day 14; • The change from baseline in ANMS GCSI-DD total scores; and • The change from baseline in ANMS GCSI-DD subscale scores.

[2] = system: adults with idiopathic or diabetic gastroparesis; conditions: in vivo
Protocol: Safety was evaluated through assessments of Aes, vital signs, physical examinations, clinical laboratory evaluations (including prolactin), and ECG findings. Additionally, a single, optional PGx blood sample may have been collected at any time during the subject's participation in the study.
Safety variables included Aes, clinical laboratory results (including prolactin), vital signs, ECGs, and physical examination findings.

[3] = system: cardiac conduction (QRS interval) in healthy subjects; conditions: human, in vivo
Protocol: Categorical T-wave morphology analysis and measurement of PR and QRS intervals were fully performed manually using a semi-automated process in 3 of the 10 ECG replicates at each time point. Final quality control and diagnostic interpretations were performed by the study cardiologist.
An unstructured covariance structure was used to specify the repeated measures at post-dose time points for subject within treatment period. The model also included a subject-specific random effect.

Compound: [2H]c1c([2H])c([2H])c2c([nH]c(=O)n2CCCN2CCC(n3c(=O)[nH]c4cc(Cl)ccc43)CC2)c1[2H] [Deudomperidone, 1-{3-[4-(5-chloro-2-oxo-2,3-dihydro-1H-1,3-benzodiazol-1-yl)piperidin-1yl]propyl}-2,3-dihydro(4,5,6,7-D4)-1H-1,3-benzodiazol-2-one]
- GEBT 45 minutes post meal consumption, Day 14, mean [1]: 10.74 kPCD
- GEBT 45 minutes post meal consumption, change from baseline to Day 14 [1]: 1.96 kPCD
- GEBT 45 minutes post meal consumption, percent change from baseline to Day 14 [1]: 89.31%
- GEBT 90 minutes post meal consumption, Day 14, mean [1]: 23.60 kPCD
- GEBT 90 minutes post meal consumption, change from baseline to Day 14 [1]: 3.37 kPCD
- GEBT 90 minutes post meal consumption, percent change from baseline to Day 14 [1]: 56.73%
- GEBT 120 minutes post meal consumption, Day 14, mean [1]: 32.68 kPCD
- GEBT 120 minutes post meal consumption, change from baseline to Day 14 [1]: 3.86 kPCD
- GEBT 120 minutes post meal consumption, percent change from baseline to Day 14 [1]: 40.17%
- GEBT 150 minutes post meal consumption, Day 14, mean [1]: 37.13 kPCD
- GEBT 150 minutes post meal consumption, change from baseline to Day 14 [1]: 1.25 kPCD
- GEBT 150 minutes post meal consumption, percent change from baseline to Day 14 [1]: 23.46%
- GEBT 180 minutes post meal consumption, Day 14, mean [1]: 40.96 kPCD
- GEBT 180 minutes post meal consumption, change from baseline to Day 14 [1]: 1.85 kPCD
- GEBT 180 minutes post meal consumption, percent change from baseline to Day 14 [1]: 20.31%
- GEBT 240 minutes post meal consumption, Day 14, mean [1]: 41.41 kPCD
- GEBT 240 minutes post meal consumption, change from baseline to Day 14 [1]: −0.79 kPCD
- GEBT 240 minutes post meal consumption, percent change from baseline to Day 14 [1]: 9.46%
- tolerability of multiple doses [2]: generally well tolerated
- LS mean placebo-corrected ΔQRS (ΔΔQRS) [3]: ±1.1 ms
